# Target: Acetylcholinesterase (AChE, from electric eel) (Electrophorus electricus, UniProt O42275)
# Experiment: In vitro AChE inhibition assay
# Type: biochemical
# Chain of Acetylcholinesterase (AChE, from electric eel) (O42275 24-633): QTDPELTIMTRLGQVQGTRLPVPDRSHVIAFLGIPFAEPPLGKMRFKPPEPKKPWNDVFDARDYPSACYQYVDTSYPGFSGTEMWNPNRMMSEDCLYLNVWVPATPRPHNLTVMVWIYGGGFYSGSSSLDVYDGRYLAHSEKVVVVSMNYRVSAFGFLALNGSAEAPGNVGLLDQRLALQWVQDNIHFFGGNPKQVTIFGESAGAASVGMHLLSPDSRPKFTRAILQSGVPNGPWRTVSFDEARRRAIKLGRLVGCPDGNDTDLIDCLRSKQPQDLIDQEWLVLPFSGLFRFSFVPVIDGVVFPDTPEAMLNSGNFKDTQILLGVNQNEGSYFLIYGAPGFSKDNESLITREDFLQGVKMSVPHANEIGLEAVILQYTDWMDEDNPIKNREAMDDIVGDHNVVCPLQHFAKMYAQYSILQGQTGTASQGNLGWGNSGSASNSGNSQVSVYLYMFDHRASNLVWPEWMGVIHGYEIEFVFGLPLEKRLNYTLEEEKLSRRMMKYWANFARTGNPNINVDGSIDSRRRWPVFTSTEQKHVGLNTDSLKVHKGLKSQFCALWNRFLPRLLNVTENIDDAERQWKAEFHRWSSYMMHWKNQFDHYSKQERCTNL
row,SMILES,IC50 [nM]
1,"CC1=C(C(=O)NC(=O)c2cnccn2)C(c2ccncc2)NC(=O)N1 (stereo not drawn) [Compound 4k, 6-Methyl-2-oxo-N-(pyrazin-2-ylcarbonyl)-4-(pyridin-4-yl)-1,2,3,4-tetrahydropyrimidine-5-carboxamide]",190 ± 10
2,"CC1=C(C(=O)NC(=O)c2cnccn2)C(c2ccccc2)NC(=S)N1 (stereo not drawn) [Compound 4b, 6-Methyl-4-phenyl-N-(pyrazin-2-ylcarbonyl)-2-thioxo-1,2,3,4-tetrahydropyrimidine-5-carboxamide]",5260 ± 10
3,"CC1=C(C(=O)NC(=O)c2cnccn2)C(c2ccc(Cl)cc2)NC(=O)N1 (stereo not drawn) [Compound 4i, 4-(4-Chlorophenyl)-6-methyl-2-oxo-N-(pyrazin-2-ylcarbonyl)-1,2,3,4-tetrahydropyrimidine-5-carboxamide]",940 ± 10
4,"CC1=C(C(=O)NC(=O)c2cnccn2)C(c2cccc(Cl)c2)NC(=S)N1 (stereo not drawn) [Compound 4f, 4-(3-Chlorophenyl)-6-methyl-N-(pyrazin-2-ylcarbonyl)-2-thioxo-1,2,3,4-tetrahydropyrimidine-5-carboxamide]",1050 ± 10
5,"CC1=C(C(=O)NC(=O)c2cnccn2)C(c2ccncc2)NC(=S)N1 (stereo not drawn) [Compound 4l, 6-Methyl-N-(pyrazin-2-ylcarbonyl) -4-(pyridin-4-yl) -2-thioxo-1,2,3,4-tetrahydropyrimidine-5-carboxamide]",110 ± 10
6,"CC1=C(C(=O)NC(=O)c2cnccn2)C(c2cccc([N+](=O)[O-])c2)NC(=S)N1 (stereo not drawn) [Compound 4d, 6-Methyl-4-(3-nitrophenyl)-N-(pyrazin-2-ylcarbonyl)-2-thioxo-1,2,3,4-tetrahydropyrimidine-5-carboxamide]",1820 ± 10
7,"CC1=C(C(=O)NC(=O)c2cnccn2)C(c2cccc(Cl)c2)NC(=O)N1 (stereo not drawn) [Compound 4e, 4-(3-Chlorophenyl)-6-methyl-2-oxo-N-(pyrazin-2-ylcarbonyl)-1,2,3,4-tetrahydropyrimidine-5-carboxamide]",1210 ± 10
8,"CC1=C(C(=O)NC(=O)c2cnccn2)C(c2cccc([N+](=O)[O-])c2)NC(=O)N1 (stereo not drawn) [Compound 4c, 6-Methyl-4-(3-nitrophenyl)-2-oxo-N-(pyrazin-2-ylcarbonyl)-1,2,3,4-tetrahydropyrimidine-5-carboxamide]",2540 ± 10
9,"CC1=C(C(=O)NC(=O)c2cnccn2)C(c2ccc(Cl)cc2)NC(=S)N1 (stereo not drawn) [Compound 4j, 4-(4-Chlorophenyl)-6-methyl-N-(pyrazin-2-ylcarbonyl)-2-thioxo-1,2,3,4-tetrahydropyrimidine-5-carboxamide]",880 ± 10
10,"CC1=C(C(=O)NC(=O)c2cnccn2)C(c2ccccc2)NC(=O)N1 (stereo not drawn) [Compound 4a, 6-Methyl-2-oxo-4-phenyl-N-(pyrazin-2-ylcarbonyl)-1,2,3,4-tetrahydropyrimidine-5-carboxamide]",5350 ± 10
11,"CC1=C(C(=O)NC(=O)c2cnccn2)C(c2ccc(F)cc2)NC(=O)N1 (stereo not drawn) [Compound 4g, 4-(4-Fluorophenyl)-6-methyl-2-oxo-N-(pyrazin-2-ylcarbonyl)-1,2,3,4-tetrahydropyrimidine-5-carboxamide]",860 ± 10
12,"CC1=C(C(=O)NC(=O)c2cnccn2)C(c2ccc(F)cc2)NC(=S)N1 (stereo not drawn) [Compound 4h, 4-(4-Fluorophenyl)-6-methyl-N-(pyrazin-2-ylcarbonyl)-2-thioxo-1,2,3,4-tetrahydropyrimidine-5-carboxamide]",750 ± 10

# Source: publication PMC5466188 (Biotechnology Reports, 2014)
